From paper PMC4388716, “An Exploratory Study on ^99mTc-RGD-BBN Peptide Scintimammography in the Assessment of Breast Malignant Lesions Compared to ^99mTc-3P4-RGD2” (PLoS ONE, 2015)

Key:
[1] = cited from earlier work; for Effective radiation dose of conventional nuclear medical imaging agent examination: in vivo
Excerpt: The effective radiation dose to the body of ^99mTc-3P4-RGD2 and ^99mTc-RGD-BBN were 1.15 ± 0.13 mSv and 0.65 ± 0.07 mSv respectively ^9. According to the 2007 Recommendations of the International Commission on Radiological Protection (ICRP), radiation equivalent dose which occupational workers’ vital organs were exposed to should be less than 500mSv and radiosensitive organs should be less than 150mSv. In our study, the mean absorbed dose equivalent for the whole body was 2.02E-03 mSv / MBq in healthy males and 2.31E-03 mSv / MBq in healthy females. Compared with other clinical mar ...

breast malignant lesions = assay: SPECT/CT scintimammography of patients with breast malignant tumors; type: in vivo, human; parameters: key to Visual uptake grading: grade 1 = no abnormal increased uptake; grade 2 = mildly increased or heterogeneous uptake; grade 3 = definite focal increased uptake; settings: for Visual uptake grading: SPECT/CT 1 h p.i., 3 readers
Excerpt: All patients were sent to the ^99mTc-3P4-RGD2 and ^99mTc-RGD-BBN SMM on an individual basis. The time interval between two imaging procedures was 48–54 hr. Finally, ^99mTc-RGD-BBN and ^99mTc-3P4-RGD2 SMM results were compared with each other. To be included, a patient had to be without any other history of breast disease. Exclusion criteria included pregnancy, lactation and a body weight greater than 80 kg.
The 3P4-RGD2 and RGD-BBN were generously provided by the Medical Isotopes Research Center of Peking University in freeze-dried kits form. Na^99mTcO4 was obtained from a commercial ^99Mo/^99mTc generator (Beijing Atom High Tech Co., Ltd.). The kit for preparation of ^99mTc-3P4-RGD2 was formulated by containing, per millilitre, 20 μg of HYNIC-3P4-RGD2, 5 mg of TPPTS, 6.5 mg of tricine, 40 mg of mannitol, 38.5 mg of disodium succinate hexahydrate and 12.7 mg of succinic acid. Radiolabeling and quality control procedures for ^99mTc-3P4-RGD2 were performed as described previously ^4. The kit for preparation of ^99mTc-RGD-BBN was formulated by containing, per millilitre, 20 μg of HYNIC-RGD-BBN, 6 mg of TPPTS, 10 mg of tricine, 40 mg of mannitol, 38.5 mg of disodium succinate hexahydrate and 12.7 mg of succinic acid. Then 1 mL of Na^99mTcO4 solution in saline was added to each kit vial followed by 30 min incubation at 100°C. The quality control was conducted by radioactive thin layer chromatography (ITLC), counting the high labeling yield of about 95%. Both ^99mTc-3P4-RGD2 and ^99mTc-RGD-BBN with a mean radioactivity of 299 ± 30 MBq and 293 ± 32 MBq were administered via single intravenous bolus injection followed by a 10 mL saline flush. ^99mTc-3P4-RGD2 and ^99mTc-RGD-BBN was performed with SPECT/CT at 1 h after intravenous injection of radiotracers respectively on separate days.
SPECT: Emission images were acquired using a dual-head, large field-of-view scintillation camera (Precedence, Philips Healthcare), equipped with a low-energy, high-resolution and parallel-hole collimator. In all healthy volunteers, planar images in both anterior and posterior views were acquired at 10 min, 30 min, 1 h, 2 h, 4 h, 8 h and 24 h post-injection and were stored digitally, using ^99mTc with a 20% energy window centered on 140 keV and 128×128 matrix. The velocity of scanning was 15 cm/min. SPECT images in all the patients were acquired over 360° (180°per head) in supine position with raised arms during the imaging. Imaging with both radiotracers was performed using 6°angular steps in a 20 s time frame, with a 64×64 matrix size. Distance between the breast and detector was minimized. The position of the patient was recorded in detail and kept consistent to the greatest extent in the second SPECT scan to make sure that the two different SPECT images could be fused to the CT images.
CT images from neck to abdomen were acquired sequentially in a non-dedicated 3rd-generation scanner installed in the SPECT camera gantry, with a 10 mm slice thickness, a maximum current of 2.5 mA and a 140 kV potential. The patients just had one CT scan since ^99mTc-3P4-RGD2 and ^99mTc-RGD-BBN SPECT were undertaken on the same device.
All images were interpreted qualitatively by three experienced nuclear medicine radiologists who were unaware of the clinical history and other test results of all patients. Visual analysis was performed on a per-lesion basis and in a blinded fashion. A 3-point scale system was adopted to describe the uptake degree for breast lesions. […] Homogeneous uptake in both breasts was classified as grade 1. SMM was considered positive for malignancy if the visual score was ≥2. There was no disagreement between three radiologists in our study.

| Molecule | Effective radiation dose of conventional nuclear medical imaging agent examination [1] [mSv] | Effective radiation dose to the body ([1]; per examination (299 ± 30 MBq 99mTc-3P4-RGD2, 293 ± 32 MBq 99mTc-RGD-BBN i.v.)) [mSv] | Visual uptake grading (breast malignant lesions; Patient 1: DCIS, R, 2.3 cm, αvβ3 -, GRPR +) | Visual uptake grading (breast malignant lesions; Patient 2: DCIS, L, 2.0 cm, αvβ3 +, GRPR +) | Visual uptake grading (breast malignant lesions; Patient 3: IDC, L, 5.1 cm, αvβ3 +, GRPR +) | Visual uptake grading (breast malignant lesions; Patient 4: IDC, R, 2.1 cm, αvβ3 +, GRPR -) | Visual uptake grading (breast malignant lesions; Patient 5: IDC, L, 5.8 cm, αvβ3 +, GRPR +) | Visual uptake grading (breast malignant lesions; Patient 6: IDC, L, 6.3 cm, αvβ3 +, GRPR +) | Malignant lesions detected by SPECT/CT (of 6 malignant lesions in 6 patients) (breast malignant lesions; SPECT/CT 1 h after i.v. injection, 4 IDC, 2 DCIS) |
| --- | --- | --- | --- | --- | --- | --- | --- | --- | --- |
| O.O.O=P([O-])([O-])CP(=O)([O-])[O-].[99Tc+4] [99mTc—MDP] | 5.92 |  |  |  |  |  |  |  |  |
| [99Tc].[C-]#[N+]CC(C)(C)OC.[C-]#[N+]CC(C)(C)OC.[C-]#[N+]CC(C)(C)OC.[C-]#[N+]CC(C)(C)OC.[C-]#[N+]CC(C)(C)OC.[C-]#[N+]CC(C)(C)OC [99mTc—MIBI] | 7.05 |  |  |  |  |  |  |  |  |
| [^99mTc (HYNIC-3PRGD2) (tricine) (TPPTS)] [99mTc-3P4-RGD2] |  | 1.15 ± 0.13 | 1 | 3 | 3 | 3 | 3 | 3 | five lesions with clear uptake and the other one with barely uptake |
